Results taken from the Kinase Knowledgebase extract (Sharma et al. 2016).
pIC50: −log10 of the molar value.

Target: PIK3CG (human) (UniProt P48736)
Test: Assessment of PIK3CG Kinase Activity

PIK3CG (human), sequence (P48736 whole entry, looked up): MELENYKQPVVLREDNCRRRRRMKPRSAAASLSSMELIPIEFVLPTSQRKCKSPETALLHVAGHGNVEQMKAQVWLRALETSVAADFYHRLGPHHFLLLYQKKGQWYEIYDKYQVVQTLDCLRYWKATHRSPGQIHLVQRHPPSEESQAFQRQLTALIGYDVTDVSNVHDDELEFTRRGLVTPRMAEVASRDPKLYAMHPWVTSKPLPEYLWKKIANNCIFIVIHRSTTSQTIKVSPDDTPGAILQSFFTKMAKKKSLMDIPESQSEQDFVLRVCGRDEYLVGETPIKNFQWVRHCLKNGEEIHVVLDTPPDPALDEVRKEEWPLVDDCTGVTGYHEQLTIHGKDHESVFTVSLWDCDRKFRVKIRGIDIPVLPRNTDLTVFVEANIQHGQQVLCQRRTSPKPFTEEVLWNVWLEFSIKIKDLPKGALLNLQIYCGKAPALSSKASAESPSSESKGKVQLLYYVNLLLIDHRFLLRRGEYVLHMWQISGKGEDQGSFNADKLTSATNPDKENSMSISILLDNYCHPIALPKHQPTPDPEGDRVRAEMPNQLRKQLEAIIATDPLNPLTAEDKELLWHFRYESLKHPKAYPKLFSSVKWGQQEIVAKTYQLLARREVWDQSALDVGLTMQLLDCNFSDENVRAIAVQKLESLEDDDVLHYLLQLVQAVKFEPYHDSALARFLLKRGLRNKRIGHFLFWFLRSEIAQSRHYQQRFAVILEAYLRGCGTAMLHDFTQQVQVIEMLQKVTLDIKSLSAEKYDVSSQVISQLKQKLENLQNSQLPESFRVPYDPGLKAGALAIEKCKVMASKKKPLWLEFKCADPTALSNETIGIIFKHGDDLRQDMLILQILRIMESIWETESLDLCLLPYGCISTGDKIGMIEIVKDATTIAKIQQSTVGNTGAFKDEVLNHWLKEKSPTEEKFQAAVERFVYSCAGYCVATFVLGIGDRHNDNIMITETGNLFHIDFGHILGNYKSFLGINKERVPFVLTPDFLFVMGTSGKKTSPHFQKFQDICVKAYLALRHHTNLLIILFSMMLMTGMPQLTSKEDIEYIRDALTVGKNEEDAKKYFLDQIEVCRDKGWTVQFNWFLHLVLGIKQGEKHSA

Row | SMILES | pIC50
1 | CC(C)(CNc1ccc(C(C)(C)C)cc1)NC(=O)Nc1nc2c(s1)-c1nc(-c3ccccc3Cl)ncc1CC2 | > 6.10
2 | NC(=O)c1cccc(CNC(=O)Nc2nc3c(s2)-c2nc(-c4ccccc4Cl)ncc2CC3)c1 | > 6.10
3 | CS(=O)(=O)Nc1cccc(CNC(=O)Nc2nc3c(s2)-c2nc(-c4ccccc4Cl)ncc2CC3)c1 | > 6.10
4 | CN(C(=O)OC(C)(C)C)C1CCN(C(=O)Nc2nc3c(s2)-c2nc(-c4ccccc4Cl)ncc2CC3)C1 (stereo unspecified) | > 6.10
5 | CC(C)C(=O)N[C@@H]1CCN(C(=O)Nc2nc3c(s2)-c2nc(-c4ccccc4Cl)ncc2CC3)C1 | > 6.10
6 | O=C(NCc1cc(C2CC2)n[nH]1)Nc1nc2c(s1)-c1nc(-c3cccc(F)c3Cl)ncc1CC2 | > 6.10
7 | CS(=O)(=O)N[C@H]1CCN(C(=O)Nc2nc3c(s2)-c2nc(-c4ccccc4Cl)ncc2CC3)C1 | > 6.10
8 | CN1CCN(Cc2ccc(NC(=O)Nc3nc4c(s3)-c3nc(-c5ccccc5Cl)ncc3CC4)cc2)CC1 | > 6.10
9 | O=C(NCc1ccco1)Nc1nc2c(s1)-c1nc(-c3ccccc3Cl)ncc1CC2 | > 6.10
10 | CCc1cnc(CCNC(=O)Nc2nc3c(s2)-c2nc(C(C)(C)C)ncc2CC3)o1 | > 6.10
11 | CC(C)(C)OC(=O)N1CCC[C@H]1CNC(=O)Nc1nc2c(s1)-c1nc(-c3ccccc3Cl)ncc1CC2 | > 6.10
12 | NC(=O)Nc1nc2c(s1)-c1nc(-c3cccc(F)c3Cl)ncc1CC2 | > 6.10
13 | CC(C)c1cnc(CCNC(=O)Nc2nc3c(s2)-c2nc(-c4ccccc4Br)ncc2CC3)o1 | > 6.10
14 | O=C(NCC1CCOCC1)Nc1nc2c(s1)-c1nc(-c3ccccc3Cl)ncc1CC2 | > 6.10
15 | O=C(NCCc1cccnc1)Nc1nc2c(s1)-c1nc(-c3ccccc3Cl)ncc1CC2 | > 6.10
16 | CNC(=O)Nc1nc2c(s1)-c1nc(-c3ccccc3C(F)(F)F)ncc1CC2 | > 6.10
17 | CNC(=O)Nc1nc2c(s1)-c1nc(-c3cccc(F)c3Cl)ncc1CC2 | > 6.10
18 | CCN1CCC[C@@H]1CNC(=O)Nc1nc2c(s1)-c1nc(-c3ccccc3Cl)ncc1CC2 | > 6.10
19 | CC(C)N(C)C(=O)c1cccc(CNC(=O)Nc2nc3c(s2)-c2nc(-c4ccccc4Cl)ncc2CC3)c1 | > 6.10
20 | NC(=O)N1Cc2ccc(CNC(=O)Nc3nc4c(s3)-c3nc(-c5ccccc5Cl)ncc3CC4)cc2C1 | > 6.10
21 | O=C(NCc1ccccc1-n1cccn1)Nc1nc2c(s1)-c1nc(-c3ccccc3Cl)ncc1CC2 | > 6.10
22 | COC(=O)CNC(=O)Nc1nc2c(s1)-c1nc(-c3ccccc3Cl)ncc1CC2 | > 6.10

Row | SMILES | pIC50
23 | COCCNC(=O)Nc1nc2c(s1)-c1nc(-c3ccccc3Cl)ncc1CC2 | > 6.10
24 | O=C(NCC1CC1)Nc1nc2c(s1)-c1nc(-c3ccccc3Cl)ncc1CC2 | > 6.10
25 | CN(C)C(=O)N[C@@H]1CCN(C(=O)Nc2nc3c(s2)-c2nc(-c4ccccc4Cl)ncc2CC3)C1 | > 6.10
26 | CCNC(=O)CCNC(=O)Nc1nc2c(s1)-c1nc(-c3ccccc3Cl)ncc1CC2 | > 6.10
27 | O=C(NCc1ccn[nH]1)Nc1nc2c(s1)-c1nc(-c3ccccc3Cl)ncc1CC2 | > 6.10
28 | CC(C)CC(=O)Nc1cccc(CNC(=O)Nc2nc3c(s2)-c2nc(-c4ccccc4Cl)ncc2CC3)c1 | > 6.10
29 | O=C(CCNC(=O)Nc1nc2c(s1)-c1nc(-c3ccccc3Cl)ncc1CC2)NC1CCCC1 | > 6.10
30 | O=C(NCCc1ccc2c(c1)OCO2)Nc1nc2c(s1)-c1nc(-c3ccccc3Cl)ncc1CC2 | > 6.10
31 | O=C(CC1CC1)N[C@H]1CCN(C(=O)Nc2nc3c(s2)-c2nc(-c4ccccc4Cl)ncc2CC3)C1 | > 6.10
32 | CN(C)C(=O)Nc1nc2c(s1)-c1nc(-c3ccccc3C(F)(F)F)ncc1CC2 | > 6.10
33 | Cn1ccc(CNC(=O)Nc2nc3c(s2)-c2nc(-c4ccccc4Cl)ncc2CC3)n1 | > 6.10
34 | O=C1CCC(NC(=O)Nc2nc3c(s2)-c2nc(-c4ccccc4Cl)ncc2CC3)C(c2ccccc2)N1 (stereo unspecified) | > 6.10
35 | O=C(NCc1cccc(OC(F)(F)F)c1)Nc1nc2c(s1)-c1nc(-c3ccccc3Cl)ncc1CC2 | > 6.10
36 | CNC(=O)Nc1nc2c(s1)-c1nc(C(C)(C)C)ncc1CC2 | > 6.10
37 | O=C(Nc1nc2c(s1)-c1nc(-c3ccccc3Cl)ncc1CC2)N1CCC(n2cnc3ccccc32)CC1 | > 6.10
38 | CN(C)C(=O)CCNC(=O)Nc1nc2c(s1)-c1nc(-c3ccccc3Cl)ncc1CC2 | > 6.10
39 | CN(C)C(=O)c1cccc(CNC(=O)Nc2nc3c(s2)-c2nc(-c4ccccc4Cl)ncc2CC3)c1 | > 6.10
40 | CC(C)(C)OC(=O)N1CCN(c2ccc(NC(=O)Nc3nc4c(s3)-c3nc(-c5ccccc5Cl)ncc3CC4)cc2)CC1 | > 6.10
41 | CC(C)NC(=O)CCNC(=O)Nc1nc2c(s1)-c1nc(-c3ccccc3Cl)ncc1CC2 | > 6.10
42 | CCNC(=O)Nc1nc2c(s1)-c1nc(-c3cccc(F)c3Cl)ncc1CC2 | > 6.10
43 | O=C(Nc1nc2c(s1)-c1nc(-c3ccccc3Cl)ncc1CC2)N1CC[C@H](NC(=O)N2CCCC2)C1 | > 6.10
44 | CN(C)C(=O)Nc1nc2c(s1)-c1nc(-c3ccccc3Br)ncc1CC2 | > 6.10

Row | SMILES | pIC50
45 | CC(C)(C)OC(=O)N1CCN(c2cccc(NC(=O)Nc3nc4c(s3)-c3nc(-c5ccccc5Cl)ncc3CC4)c2)CC1 | > 6.10
46 | CN(C)C(=O)Nc1nc2c(s1)-c1nc(-c3ccccc3F)ncc1CC2 | > 6.10
47 | CC(C)CCNC(=O)CCNC(=O)Nc1nc2c(s1)-c1nc(-c3ccccc3Cl)ncc1CC2 | > 6.10
48 | CC(C)(CNc1ncccn1)NC(=O)Nc1nc2c(s1)-c1nc(-c3ccccc3Cl)ncc1CC2 | > 6.10
49 | O=C(NCc1cccc(N2CCCCC2)c1)Nc1nc2c(s1)-c1nc(-c3ccccc3Cl)ncc1CC2 | > 6.10
50 | CC1CC(c2ccc(O)cc2)CN1C(=O)Nc1nc2c(s1)-c1nc(-c3ccccc3Cl)ncc1CC2 (stereo unspecified) | > 6.10
51 | CC(C)(C)NC(=O)CCNC(=O)Nc1nc2c(s1)-c1nc(-c3ccccc3Cl)ncc1CC2 | > 6.10
52 | CN1CCC(CNC(=O)Nc2nc3c(s2)-c2nc(-c4ccccc4Cl)ncc2CC3)CC1 | > 6.10
53 | COc1cccc([C@H](C)NC(=O)Nc2nc3c(s2)-c2nc(-c4ccccc4Cl)ncc2CC3)c1 | > 6.10
54 | O=C(NCc1cccc(NC(=O)C2CCCC2)c1)Nc1nc2c(s1)-c1nc(-c3ccccc3Cl)ncc1CC2 | > 6.10
55 | CCNC(=O)Nc1nc2c(s1)-c1nc(-c3ccccc3Cl)ncc1CC2 | > 6.10
56 | COc1cccc(CNC(=O)Nc2nc3c(s2)-c2nc(-c4ccccc4Cl)ncc2CC3)c1 | > 6.10
57 | O=C(NC[C@H]1CCCN1)Nc1nc2c(s1)-c1nc(-c3ccccc3Cl)ncc1CC2 | > 6.10
58 | CC(C)(C)OC(=O)NCc1cccc(CNC(=O)Nc2nc3c(s2)-c2nc(-c4ccccc4Cl)ncc2CC3)c1 | > 6.10
59 | CC(C)c1noc(CCNC(=O)Nc2nc3c(s2)-c2nc(-c4ccccc4Cl)ncc2CC3)n1 | > 6.10
60 | CC(NC(=O)Nc1nc2c(s1)-c1nc(-c3ccccc3Cl)ncc1CC2)c1cccc(NC(=O)OC(C)(C)C)c1 (stereo unspecified) | > 6.10
61 | Cn1cc(CNC(=O)Nc2nc3c(s2)-c2nc(-c4ccccc4Br)ncc2CC3)cn1 | > 6.10
62 | CC(C)(C)OC(=O)NCc1ccccc1NC(=O)Nc1nc2c(s1)-c1nc(-c3ccccc3Cl)ncc1CC2 | > 6.10
63 | O=C(Nc1nc2c(s1)-c1nc(-c3ccccc3Cl)ncc1CC2)Nc1ccccc1CN1CCNC1=O | > 6.10
64 | O=C(NCc1cccc(N2CCCC2=O)c1)Nc1nc2c(s1)-c1nc(-c3ccccc3Cl)ncc1CC2 | > 6.10
65 | O=C(NCc1cccc(NC(=O)N2CCCC2)c1)Nc1nc2c(s1)-c1nc(-c3ccccc3Cl)ncc1CC2 | > 6.10
66 | CCc1csc(CCNC(=O)Nc2nc3c(s2)-c2nc(-c4ccccc4F)ncc2CC3)n1 | > 6.10
